Data on 2 compounds can be found in patent US9603896B2, “Peptide compounds and methods of production and use thereof” (priority 2012, dated 2017).

Structures are written as SMILES. Where two headings read alike, the source gives them in different places. Square brackets hold non-standard residues; d marks the D form. Peptide text beside a SMILES is read from it. AEEA = NCCOCCOCC(=O)O

The subject of experiment [1] is Pseudomonas aeruginosa ATCC® 27853™. It is filed as cell-based. Conditions: for Effects of Peptide Compounds on Pseudomonas aeruginosa ATCC ® 27853 ™: Table 6, 5 × 10^3 CFU/ml unless italicized = 1 × 10^5 CFU/ml. Also noted: Log reduction of Pseudomonas: dose or concentration left out as unconfirmed.
Experiment [2] deals with E. coli ATCC® strain 25922™. It is filed as cell-based, Escherichia coli. Also noted: Log reduction of E. coli: dose or concentration left out as unconfirmed; Effects of Peptide Compounds on Escherichia coli ATCC ® 25922 ™: unit not given here. Conditions: for Effects of Peptide Compounds on Escherichia coli ATCC ® 25922 ™: Table 6, 5 × 10^3 CFU/ml unless italicized = 1 × 10^5 CFU/ml. On the procedure:
The three peptide compounds BCC01-5RMP (SEQ ID NO:21), BCC02-5RMP (SEQ ID NO:22), and BCC03-5RMP (SEQ ID NO:23) were assayed for in vitro bactericidal activity against Pseudomonas aeruginosa, Escherichia coli, Salmonella typhimurium, and Acinetobacter baumannii. […] The CFU remaining at the end of 60 to 180 minute incubation was determined, and the data plotted as a log reduction in CFU/ml.
Tables 4-6 show the results of various peptides and peptide compounds against P. aeruginosa and E. coli strains. Tables 4 and 5 show the results of an investigation of the effects of peptide or peptide compounds BCC03-5RMP (SEQ ID NO:23), BCC03-MP (SEQ ID NO:24) and BCC03-5R (SEQ ID NO:20) against P. aeruginosa ATCC® strain 27853™ and E. coli ATCC® strain 25922™ (American Type Culture Collection, Manassas, Va.). […] Table 6 compares the activity of several other compounds, including the “5R” versions of BCC01, i.e., SEQ ID NO:18 (which comprises SEQ ID NO:1 with five additional arginines), the “5R” version of BCC02 (i.e., SEQ ID NO:19, which comprises SEQ ID NO:2 with five additional arginines), and BCC03-5RMP (SEQ ID NO:23), and BCC03-MP (SEQ ID NO:24, i.e., without the five additional R residues). The data generally indicate the superiority of BCC03-5RMP (SEQ ID NO:23) against E. coli, and the superiority of the 5R or 5RMP versions of the peptide over the “AEEA only” peptide against P. aeruginosa.

Experiment [3] concerns TNF-α release from LPS-stimulated RAW264.7 cells. Briefly: LPS neutralization: TNF-α release from LPS-stimulated RAW264.7 cells. It is filed as cell-based, mouse. Conditions: Pseudomonas LPS. On the procedure: (§1) The well-characterized response of RAW264.7 macrophage cells was used to produce tumor necrosis-factor-alpha (TNF-α) in response to LPS to determine whether the peptides could dampen the release of this cytokine. […] Importantly, pre-treatment (3 hours prior to LPS addition) as well as post-treatment of the RAW264.7 cells (3 hours post LPS addition) with peptide dampened the cytokine release. […] The finding that the novel peptides bind and neutralize the effect of Pseudomonas LPS is of critical importance since this ensures that the novel therapeutic peptide compounds described herein will not only kill the bacteria, but will also neutralize the LPS endotoxin released by the bacteria which plays such an important role in the rapid progression of sepsis.
(§2) BCC01-5RMP (SEQ ID NO:21), BCC02-5RMP (SEQ ID NO:22), and BCC03-5RMP (SEQ ID NO:23) were tested for their ability to bind lipopolysaccharide (LPS) using the limulus amebocyte lysate method (LAL). […] There was no statistical difference in their ability to bind LPS using the LAL technique. The ability of the peptides to neutralize LPS was assessed by determining their ability to attenuate the release of tumor necrosis factor-alpha (TNF-α) from LPS-stimulated RAW264.7 cells (a mouse macrophage cell line). […] No significant differences were observed between the three peptides to neutralize LPS as measured by cytokine release.

Experiment [4] is described as follows: LPS binding, Limulus Amebocyte Lysate (LAL) assay. Also noted: species or system Pseudomonas. On the procedure:
as §1, §2

In the case of `CC[C@H](C)[C@H](NC(=O)[C@H](CC(C)C)NC(=O)[C@H](C)NC(=O)CNC(=O)CNC(=O)[C@H](CS)NC(=O)[C@H](Cc1ccccc1)NC(=O)[C@H](Cc1c[nH]cn1)NC(=O)[C@H](CCCNC(=N)N)NC(=O)CNC(=O)[C@H](CCC(N)=O)NC(=O)[C@H](CC(N)=O)NC(=O)[C@H](CCCNC(=N)N)NC(=O)[C@H](CCCNC(=N)N)NC(=O)[C@H](CCCNC(=N)N)NC(=O)[C@H](CCCNC(=N)N)NC(=O)COCCOCCNC(=O)COCCOCCN)C(=O)N[C@@H](Cc1c[nH]cn1)C(=O)N[C@@H](C)C(=O)N[C@@H](CCCNC(=N)N)C(=O)N[C@@H](Cc1ccccc1)C(=O)N[C@H](C(=O)N[C@@H](CCSC)C(=O)N[C@H](C(=O)N[C@@H](C)C(=O)N[C@@H](C)C(=O)N[C@@H](CO)C(=O)N[C@@H](CS)C(=O)N[C@@H](Cc1ccccc1)C(=O)N[C@@H](CCC(N)=O)C(=O)N[C@@H](CCCNC(=N)N)C(=O)O)[C@@H](C)O)C(C)C` [BCC01-5RMP] (H-[AEEA][AEEA]RRRRNQGRHFCGGALIHARFVMTAASCFQR-OH), the “Log reduction of Pseudomonas” value in experiment [1] (starting inoculum 1×10^6 CFU/ml, 60 to 180 minute incubation) amounted to 5. Also, the “Log reduction of E. coli” value in experiment [2] (25, starting inoculum 1×10^6 CFU/ml, 60 to 180 minute incubation) is given as 3. Besides, the “neutralization of LPS: release of TNF-α” value in experiment [3] is “attenuate the release of TNF-α”. Further, in experiment [4], the “binding of Pseudomonas LPS” value is on record as “bound Pseudomonas LPS”.
As to `CC[C@H](C)[C@H](NC(=O)[C@H](CC(C)C)NC(=O)[C@H](C)NC(=O)CNC(=O)CNC(=O)[C@H](CS)NC(=O)[C@H](Cc1ccccc1)NC(=O)[C@H](Cc1c[nH]cn1)NC(=O)[C@H](CCCNC(=N)N)NC(=O)CNC(=O)[C@H](CCC(N)=O)NC(=O)[C@H](CC(N)=O)NC(=O)[C@H](CCCNC(=N)N)NC(=O)[C@H](CCCNC(=N)N)NC(=O)[C@H](CCCNC(=N)N)NC(=O)[C@H](CCCNC(=N)N)NC(=O)COCCOCCNC(=O)COCCOCCN)C(=O)N[C@@H](Cc1c[nH]cn1)C(=O)N[C@@H](C)C(=O)N[C@@H](CCCNC(=N)N)C(=O)N[C@@H](Cc1ccccc1)C(=O)N[C@H](C(=O)N[C@@H](CCSC)C(=O)N[C@H](C(=O)N[C@@H](C)C(=O)N[C@@H](C)C(=O)N[C@@H](CO)C(=O)N[C@@H](CO)C(=O)N[C@@H](Cc1ccccc1)C(=O)N[C@@H](CCC(N)=O)C(=O)N[C@@H](CCCNC(=N)N)C(=O)O)[C@@H](C)O)C(C)C` [BCC03-5RMP] (H-[AEEA][AEEA]RRRRNQGRHFCGGALIHARFVMTAASSFQR-OH; N-terminus assumed), the “Effects of Peptide Compounds on Pseudomonas aeruginosa ATCC ® 27853 ™” value amounted to 87.4 in experiment [1] (0.78 μg/ml); 96.6 in experiment [1] (1.56 μg/ml); 98.4 in experiment [1] (3.125 μg/ml); 99.8 in experiment [1] (6.25 μg/ml); 99.9 in experiment [1] (12.5 μg/ml); 100.0 in experiment [1] (25 μg/ml). Besides, the “Effects of Peptide Compounds on Pseudomonas aeruginosa ATCC ® 27853 ™” value in experiment [1] (50 μg/ml), in experiment [1] (100 μg/ml) and in experiment [1] (200 μg/ml) was 100.0 throughout. Moreover, the “Effects of Peptide Compounds on Escherichia coli ATCC ® 25922 ™” value is 12.3 in experiment [2] (0.78 μg/ml); 23.0 in experiment [2] (1.56 μg/ml); 32.8 in experiment [2] (3.125 μg/ml); 78.7 in experiment [2] (6.25 μg/ml); 99.3 in experiment [2] (12.5 μg/ml); 99.7 in experiment [2] (25 μg/ml). In addition, the “Effects of Peptide Compounds on Escherichia coli ATCC ® 25922 ™” value in experiment [2] (50 μg/ml), in experiment [2] (100 μg/ml) and in experiment [2] (200 μg/ml) was 99.9 each time. The “neutralization of LPS: release of TNF-α” value in experiment [3] is “attenuate the release of TNF-α”. Also, the “binding of Pseudomonas LPS” value in experiment [4] is “bound Pseudomonas LPS”.
